Assay results: publication PMC9090415, “Discovery of small molecule inhibitors of Plasmodium falciparum apicoplast DNA polymerase” (Journal of Enzyme Inhibition and Medicinal Chemistry, 2022)
pIC50: −log10 of the molar value.

Molecular target: P. falciparum apicoplast DNA polymerase (Pf-apPOL) (Plasmodium falciparum, UniProt Q8ILY1)
Assay: Fluorescence-based high-throughput DNA polymerase assay (molecular beacon), primary screen and dose-response
Type: biochemical
Experimental: The HT assay employs a molecular beacon, a stem-loop DNA template with a Cy3 dye and the Black Hole Quencher on the 3′ and 5′ ends of the DNA, respectively. Pf-apPOL concentration is based on a calculated absorptivity of ε280 = 56750 M^−1 cm^−1. Reactions were carried out at 25 °C, using Corning 3575 […] (well-volume, 20 µL). Assays testing for compound inhibition composed of reaction buffer (pH 7.9 in 50 mM potassium acetate, 20 mM Tris-acetate and 10 mM magnesium acetate), Pf-apPOL (20 nM), DNA substrate (20 nM), dNTPs (6 µM), and compound (10 µM in DMSO). The DNA and nucleotide substrates (dNTPs) were at concentrations of 20 nM and 6 µM, respectively, in the assay. Pf-apPOL was incubated in the reaction buffer with dNTPs and the compound of interest (10 µM, in the assay) at 25 °C for 10 min. The DNA substrate was then added and the reaction was allowed to proceed for 90 min at 25 °C.
Each assay plate contained 16 negative controls (no Pf-apPOL, DMSO present) and 16 positive controls (Pf-apPOL present, no DMSO). The fluorescence of each well was determined using a BioTek Synergy Neo fluorescence plate reader using excitation and emission wavelengths of 555 and 570 nm, respectively.
In the above, Min is the average of fluorescence emission of the negative controls (substrate only), Max the average fluorescence emission from the positive controls (enzyme + substrate), and Test the emission from the assays in the presence of compounds (enzyme + compound + substrates). […] […] The IC50 of each compound was determined using Equation (2): (2) IC50= Vmax/(1+ (I/IC50)^n)
In the above, n measures cooperativity, with n > 1 indicating synergistic binding of more than a single molecule of the compound.
To identify apPOL inhibitors we utilised our previously developed high-throughput DNA polymerase assay. The HT assay is based on a molecular beacon DNA template that forms a stem-loop with a Cy3 dye and the Black Hole Quencher on the 3′ and 5′ ends of the DNA, respectively. DNA polymerase activity extends an annealed primer through the stem region, displacing the fluorophore from the quencher, thereby increasing its fluorescence (Figure 1(A)). The assay accurately recapitulates the kinetic behaviour of apPOL, as measured through more conventional low-throughput gel-based assays. The Z′ factor for the assay described here was 0.9 across all plates (data not shown).
Figure 1. High-throughput screening. (A) The fluorescent-based DNA polymerase assay used to screen the compound libraries. The DNA template strand is a hairpin loop with a primer annealed to the loop. The 3’ end of the primer is 11 bases away from the 6 bp duplex. Strand displacement activity of the DNA polymerase separates the Cy3 dye from the Black hole quencher leading to an increase in fluorescent signal. (B) The high-throughput assay workflow. The DNA polymerase is incubated with […] compound for 10 min prior to addition of the hairpin substrate. The reaction is quenched at 3 different time points and the fluorescent signal is measured and % inhibition is determined using the provided equation.

[1] = supplemental file 2, sheet IC50 nontoxic compounds; Pf-apPOL

Chain of P. falciparum apicoplast DNA polymerase (Pf-apPOL) (Q8ILY1 entry or part of it): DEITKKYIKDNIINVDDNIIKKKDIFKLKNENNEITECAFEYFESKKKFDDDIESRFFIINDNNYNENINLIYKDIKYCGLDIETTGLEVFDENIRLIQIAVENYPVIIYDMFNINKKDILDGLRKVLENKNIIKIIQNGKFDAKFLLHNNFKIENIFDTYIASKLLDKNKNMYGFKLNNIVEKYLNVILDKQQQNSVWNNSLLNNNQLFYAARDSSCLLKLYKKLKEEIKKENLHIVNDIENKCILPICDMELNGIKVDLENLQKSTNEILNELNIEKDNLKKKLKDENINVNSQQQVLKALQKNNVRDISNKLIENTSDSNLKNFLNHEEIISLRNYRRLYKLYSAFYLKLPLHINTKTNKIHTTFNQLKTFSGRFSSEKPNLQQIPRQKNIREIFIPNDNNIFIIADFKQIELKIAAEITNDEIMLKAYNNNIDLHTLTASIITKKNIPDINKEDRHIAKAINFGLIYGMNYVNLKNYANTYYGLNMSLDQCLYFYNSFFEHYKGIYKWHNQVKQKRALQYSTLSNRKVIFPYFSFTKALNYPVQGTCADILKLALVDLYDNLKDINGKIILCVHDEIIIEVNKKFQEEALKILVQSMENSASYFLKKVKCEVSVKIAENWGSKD

## CCCCCc1c2c(cc(O)c1C(=O)O)OC(=O)c1c(cc(OC)cc1C(=O)CCCC)O2 [Molecule 24, CCCCCc1c2Oc3cc(OC)cc(c3C(=O)Oc2cc(c1C(=O)O)O)C(=O)CCCC]
DRC-1; concentration 2.5; 10'
  % inhibition Apo pol 10': 18.1675%
DRC-1; concentration 2.5; 90'
  % inhibition Apol 90': 17.5572%
DRC-1; concentration 2.5; 180'
  % inhibition apPOL 180': 13.8829%
DRC-1; concentration 5; 10'
  % inhibition Apo pol 10': 31.5197%
DRC-1; concentration 5; 90'
  % inhibition Apol 90': 20.3733%
DRC-1; concentration 5; 180'
  % inhibition apPOL 180': 11.4977%
DRC-1; concentration 10; 10'
  % inhibition Apo pol 10': 51.0452%
DRC-1; concentration 10; 90'
  % inhibition Apol 90': 38.7515%
DRC-1; concentration 10; 180'
  % inhibition apPOL 180': 28.4609%
DRC-1; concentration 20; 10'
  % inhibition Apo pol 10': 86.3655%
DRC-1; concentration 20; 90'
  % inhibition Apol 90': 81.3702%
DRC-1; concentration 20; 180'
  % inhibition apPOL 180': 74.6955%
DRC-1; concentration 40; 10'
  % inhibition Apo pol 10': 94.8127%
DRC-1; concentration 40; 90'
  % inhibition Apol 90': 91.3399%
DRC-1; concentration 40; 180'
  % inhibition apPOL 180': 88.9652%
DRC-1; concentration 80 (unit not given); 10'
  % inhibition Apo pol 10': 96.1248%
DRC-1; concentration 80; 90'
  % inhibition Apol 90': 93.64%
DRC-1; concentration 80; 180'
  % inhibition apPOL 180': 92.215%
DRC-2; 5'; concentration 2.5
  % inhibition Apo pol 5': 11%
DRC-2; 40'; concentration 10
  % inhibition Apol 40': 51%
DRC-2; 40'; concentration 20
  % inhibition Apol 40': 43%
DRC-2; 90'; concentration 2.5
  % inhibition ApPOL 90': 11%
DRC-2; 90'; concentration 10
  % inhibition ApPOL 90': 51%
DRC-2; 180'; concentration 5
  % inhibition apPOL 180': 11%
DRC-2; 180'; concentration 10
  % inhibition apPOL 180': 43%
DRC-2; concentration 2.5; 5'
  % inhibition Apo pol 5': 11%
DRC-2; concentration 2.5; 40'
  % inhibition Apol 40': 14%
DRC-2; concentration 2.5; 90'
  % inhibition ApPOL 90': 11%
DRC-2; concentration 2.5; 180'
  % inhibition apPOL 180': 6%
DRC-2; concentration 5; 5'
  % inhibition Apo pol 5': 18%
DRC-2; concentration 5; 40'
  % inhibition Apol 40': 20%
DRC-2; concentration 5; 90'
  % inhibition ApPOL 90': 19%
DRC-2; concentration 5; 180'
  % inhibition apPOL 180': 11%
DRC-2; concentration 10; 5'
  % inhibition Apo pol 5': 42%
DRC-2; concentration 10; 40'
  % inhibition Apol 40': 51%
DRC-2; concentration 10; 90'
  % inhibition ApPOL 90': 51%
DRC-2; concentration 10; 180'
  % inhibition apPOL 180': 43%
DRC-2; concentration 20; 5'
  % inhibition Apo pol 5': 35%
DRC-2; concentration 20; 40'
  % inhibition Apol 40': 43%
DRC-2; concentration 20; 90'
  % inhibition ApPOL 90': 41%
DRC-2; concentration 20; 180'
  % inhibition apPOL 180': 32%
DRC-2; concentration 40; 5'
  % inhibition Apo pol 5': 49%
DRC-2; concentration 40; 40'
  % inhibition Apol 40': 65%
DRC-2; concentration 40; 90'
  % inhibition ApPOL 90': 66%
DRC-2; concentration 40; 180'
  % inhibition apPOL 180': 62%
DRC-2; concentration 80; 5'
  % inhibition Apo pol 5': 56%
DRC-2; concentration 80; 40'
  % inhibition Apol 40': 76%
DRC-2; concentration 80; 90'
  % inhibition ApPOL 90': 80%
DRC-2; concentration 80; 180'
  % inhibition apPOL 180': 81%
Primary screen value of the 186 hits; unit not given; 90 min, 10 µM
  DNA Pol: 33
Primary screen value; head prints only 'DNA Pol'; 90 min, 10 µM
  DNA Pol: 33

## O=C(CSc1nnc(-c2ccncc2)[nH]1)c1ccc(O)c(O)c1 [Molecule 89]
[1]
  pIC50: > 5.60

## COCCN(CCOC)Cc1c(O)ccc2c1OC(=Cc1cc(Br)ccc1OC)C2=O [KU0198471]
'DNA Pol' of the 186 hits list (primary screen result); unit not given; 90 min, 10 µM
  DNA Pol: 63
DRC-1; 10'; concentration 2.5
  % inhibition Apo pol 10': -2.842%
DRC-1; 10'; concentration 5
  % inhibition Apo pol 10': 2.517%
DRC-1; 10'; concentration 10
  % inhibition Apo pol 10': 15.0312%
DRC-1; 10'; concentration 20
  % inhibition Apo pol 10': 43.5523%
DRC-1; 10'; concentration 40
  % inhibition Apo pol 10': 79.9378%
DRC-1; 10'; concentration 80
  % inhibition Apo pol 10': 100.142%
DRC-1; 90'; concentration 2.5
  % inhibition Apol 90': 0.2446%
DRC-1; 90'; concentration 5
  % inhibition Apol 90': 8.305%
DRC-1; 90'; concentration 10
  % inhibition Apol 90': 20.0345%
DRC-1; 90'; concentration 20
  % inhibition Apol 90': 57.0182%
DRC-1; 90'; concentration 40
  % inhibition Apol 90': 88.9313%
DRC-1; 90'; concentration 80
  % inhibition Apol 90': 100.102%
DRC-1; 180'; concentration 2.5
  % inhibition apPOL 180': 3.8606%
DRC-1; 180'; concentration 5
  % inhibition apPOL 180': 14.5947%
DRC-1; 180'; concentration 10
  % inhibition apPOL 180': 28.8657%
DRC-1; 180'; concentration 20
  % inhibition apPOL 180': 74.003%
DRC-1; 180'; concentration 40
  % inhibition apPOL 180': 99.2826%
DRC-1; 180'; concentration 80
  % inhibition apPOL 180': 101.453%
DRC-2, 5', concentration 2.5 (unit not given)
  % inhibition Apo pol 5': 10%
DRC-2, 40', concentration 2.5 (unit not given)
  % inhibition Apol 40': 10%
DRC-2; 5'; concentration 2.5
  % inhibition Apo pol 5': 10%
DRC-2; 5'; concentration 5
  % inhibition Apo pol 5': 10%
DRC-2; 5'; concentration 5 (unit not given)
  % inhibition Apo pol 5': 10%
DRC-2; 5'; concentration 10
  % inhibition Apo pol 5': 33%
DRC-2; 5'; concentration 20
  % inhibition Apo pol 5': 48%
DRC-2; 5'; concentration 40
  % inhibition Apo pol 5': 59%
DRC-2; 5'; concentration 80
  % inhibition Apo pol 5': 60%
DRC-2; 40'; concentration 2.5
  % inhibition Apol 40': 10%
DRC-2; 40'; concentration 5
  % inhibition Apol 40': 6%
DRC-2; 40'; concentration 10
  % inhibition Apol 40': 36%
DRC-2; 40'; concentration 20
  % inhibition Apol 40': 53%
DRC-2; 40'; concentration 40
  % inhibition Apol 40': 73%
DRC-2; 40'; concentration 80
  % inhibition Apol 40': 79%
DRC-2; 90'; concentration 2.5
  % inhibition ApPOL 90': 10%
DRC-2; 90'; concentration 2.5 (unit not given)
  % inhibition ApPOL 90': 10%
DRC-2; 90'; concentration 5
  % inhibition ApPOL 90': -0.305%
DRC-2; 90'; concentration 10
  % inhibition ApPOL 90': 34%
DRC-2; 90'; concentration 20
  % inhibition ApPOL 90': 52%
DRC-2; 90'; concentration 40
  % inhibition ApPOL 90': 75%
DRC-2; 90'; concentration 80
  % inhibition ApPOL 90': 82%
DRC-2; 180'; concentration 2.5
  % inhibition apPOL 180': 4.6%
DRC-2; 180'; concentration 5
  % inhibition apPOL 180': -68%
DRC-2; 180'; concentration 10
  % inhibition apPOL 180': 25%
DRC-2; 180'; concentration 20
  % inhibition apPOL 180': 41%
DRC-2; 180'; concentration 40
  % inhibition apPOL 180': 72%
DRC-2; 180'; concentration 80
  % inhibition apPOL 180': 85%
Primary screen value of the library well; unit not given; 90 min, 10 µM
  DNA Pol: 63

## Cc1ccc(C(=O)/C=C/C=C/C=C/N(C)C)o1 [Molecule 96]
[1]
  pIC50: 5.31
